Assay results published in ChEMBL document CHEMBL4052645, “Discovery of potent and efficacious pyrrolopyridazines as dual JAK1/3 inhibitors” (Bioorg Med Chem Lett, 2017).

How the values were obtained:
[1] = target: Myotonin-protein kinase (Homo sapiens) (UniProt Q09013); experiment: Inhibition of human DMPK1 (V47 to N415 residues) expressed in bacterial expression system assessed as residual activity at 50 nM by KINOMEscan assay relative to control
[2] = target: Fibroblast growth factor receptor 3 (Homo sapiens) (UniProt P22607); experiment: Inhibition of wild-type human partial length FGFR3 (R442 to S771 residues) expressed in bacterial expression system assessed as residual activity at 50 nM by Kinomescan method relative to control
[3] = target: Phosphorylase b kinase gamma catalytic chain, liver/testis isoform (Homo sapiens) (UniProt P15735); experiment: Inhibition of wild-type human partial length PHKG2 (M1 to W300 residues) expressed in bacterial expression system assessed as residual activity at 50 nM by Kinomescan method relative to control
[4] = target: Death-associated protein kinase 3 (Homo sapiens) (UniProt O43293); experiment: Inhibition of wild-type human partial length DAPK3 (M1 to A277 residues) expressed in bacterial expression system assessed as residual activity at 50 nM by Kinomescan method relative to control
[5] = target: Calcium/calmodulin-dependent protein kinase type II subunit beta (Homo sapiens) (UniProt Q13554); experiment: Inhibition of wild-type human partial length CAMK2B (M1 to Q380 residues) expressed in bacterial expression system assessed as residual activity at 50 nM by Kinomescan method relative to control
[6] = target: Ephrin type-A receptor 8 (Homo sapiens) (UniProt P29322); experiment: Inhibition of wild-type human partial length EPHA8 (Q608 to C920 residues) expressed in bacterial expression system assessed as residual activity at 50 nM by Kinomescan method relative to control
[7] = target: Mitogen-activated protein kinase 8 (Homo sapiens) (UniProt P45983); experiment: Inhibition of wild-type human full length JNK1 (M1 to Q384 residues) expressed in mammalian expression system assessed as residual activity at 50 nM by Kinomescan method relative to control
[8] = target: Serine/threonine-protein kinase 24 (Homo sapiens) (UniProt Q9Y6E0); experiment: Inhibition of wild-type human partial length MST3 (A30 to S311 residues) expressed in bacterial expression system assessed as residual activity at 50 nM by Kinomescan method relative to control
[9] = target: Ephrin type-B receptor 6 (Homo sapiens) (UniProt O15197); experiment: Inhibition of wild-type human partial length EPHB6 (Q634 to P948 residues) expressed in mammalian expression system assessed as residual activity at 50 nM by Kinomescan method relative to control
[10] = target: Mitogen-activated protein kinase kinase kinase 10 (Homo sapiens) (UniProt Q02779); experiment: Inhibition of wild-type human partial length MLK2 (V52 to W380 residues) expressed in bacterial expression system assessed as residual activity at 50 nM by Kinomescan method relative to control
[11] = target: 3-phosphoinositide-dependent protein kinase 1 (Homo sapiens) (UniProt O15530); experiment: Inhibition of wild-type human full length PDK1 (M1 to Q556 residues) expressed in bacterial expression system assessed as residual activity at 50 nM by Kinomescan method relative to control
[12] = target: Serine/threonine-protein kinase pim-1 (Homo sapiens) (UniProt P11309); experiment: Inhibition of wild-type human partial length PIM1 (A15 to K313 residues) expressed in bacterial expression system assessed as residual activity at 50 nM by Kinomescan method relative to control
[13] = target: Tyrosine-protein kinase receptor TYRO3 (Homo sapiens) (UniProt Q06418); experiment: Inhibition of wild-type human partial length TYRO3 (S497 to T814 residues) expressed in bacterial expression system assessed as residual activity at 50 nM by Kinomescan method relative to control
[14] = target: Tyrosine-protein kinase Fer (Homo sapiens) (UniProt P16591); experiment: Inhibition of wild-type human partial length FER (S542 to T822 residues) expressed in bacterial expression system assessed as residual activity at 50 nM by Kinomescan method relative to control
[15] = target: Phosphatidylinositol 4-phosphate 5-kinase type-1 gamma (Homo sapiens) (UniProt O60331); experiment: Inhibition of wild-type human partial length PIP5K1C (M1 to T668 residues) expressed in mammalian expression system assessed as residual activity at 50 nM by Kinomescan method relative to control
[16] = target: Serine/threonine-protein kinase 32B (Homo sapiens) (UniProt Q9NY57); experiment: Inhibition of wild-type human full length YANK2 (M1 to S414 residues) expressed in bacterial expression system assessed as residual activity at 50 nM by Kinomescan method relative to control
[17] = target: Mitogen-activated protein kinase kinase kinase 3 (Homo sapiens) (UniProt Q99759); experiment: Inhibition of wild-type human partial length MAP3K3 (E320 to Y626 residues) expressed in mammalian expression system assessed as residual activity at 50 nM by Kinomescan method relative to control
[18] = target: cAMP-dependent protein kinase catalytic subunit beta (Homo sapiens) (UniProt P22694); experiment: Inhibition of wild-type human full length PKACB (M1 to F351 residues) expressed in bacterial expression system assessed as residual activity at 50 nM by Kinomescan method relative to control
[19] = target: Microtubule-associated serine/threonine-protein kinase 1 (Homo sapiens) (UniProt Q9Y2H9); experiment: Inhibition of wild-type human partial length MAST1 (S346 to V730 residues) expressed in mammalian expression system assessed as residual activity at 50 nM by Kinomescan method relative to control
[20] = target: Mitogen-activated protein kinase 14 (Homo sapiens) (UniProt Q16539); experiment: Inhibition of wild-type human full length p38-alpha (M1 to S360 residues) expressed in bacterial expression system assessed as residual activity at 50 nM by Kinomescan method relative to control
[21] = target: Serine/threonine-protein kinase TAO3 (Homo sapiens) (UniProt Q9H2K8); experiment: Inhibition of wild-type human partial length TAO3 (M1 to T316 residues) expressed in mammalian expression system assessed as residual activity at 50 nM by Kinomescan method relative to control
[22] = target: Mitogen-activated protein kinase kinase kinase 13 (Homo sapiens) (UniProt O43283); experiment: Inhibition of wild-type human full length LZK (M1 to W966 residues) expressed in mammalian expression system assessed as residual activity at 50 nM by Kinomescan method relative to control
[23] = target: MAP kinase-interacting serine/threonine-protein kinase 2 (Homo sapiens) (UniProt Q9HBH9); experiment: Inhibition of wild-type human partial length MNK2 (G63 to S388 residues) expressed in mammalian expression system assessed as residual activity at 50 nM by Kinomescan method relative to control
[24] = target: Serine/threonine-protein kinase Nek6 (Homo sapiens) (UniProt Q9HC98); experiment: Inhibition of wild-type human full length NEK6 (M8 to T313 residues) expressed in bacterial expression system assessed as residual activity at 50 nM by Kinomescan method relative to control
[25] = target: Fibroblast growth factor receptor 1 (Homo sapiens) (UniProt P11362); experiment: Inhibition of wild-type human partial length FGFR1 (P357 to V669 residues) expressed in bacterial expression system assessed as residual activity at 50 nM by Kinomescan method relative to control

Work on CC1(C)[C@H](Nc2c(C(N)=O)cnn3cc(-c4ccccc4)cc23)CC[C@]1(C)N yielded an Activity [1] of 2.8%, an Activity [2] of 100% and an Activity [3] of 67%. It also gave an Activity [4] of 90%, an Activity [5] of 78% and an Activity [6] of 100%. For the same molecule, the Activity [7] was 81%, the Activity [8] was 38% and the Activity [9] was 66%. The Activity [10] was 100%, the Activity [11] was 82% and the Activity [12] was 96%. The Activity [13] was 100%, the Activity [14] was 100% and the Activity [15] was 68%. For the same molecule, the Activity [16] was 100%, the Activity [17] was 61% and the Activity [18] was 100%. It also gave an Activity [19] of 100%, an Activity [20] of 94% and an Activity [21] of 82%. For the same molecule, the Activity [22] was 93%, the Activity [23] was 100% and the Activity [24] was 88%. The Activity [25] was 81%.

COc1ccc(-c2cc3c(N[C@@H]4CC[C@](C)(N)C4(C)C)c(C(N)=O)cnn3c2)cn1 was tested, and the Activity [1] was 38%, the Activity [2] was 82% and the Activity [3] was 100%. The Activity [4] was 97%, the Activity [5] was 92% and the Activity [6] was 100%. It also gave an Activity [7] of 88%, an Activity [8] of 61% and an Activity [9] of 86%. For the same molecule, the Activity [10] was 94%, the Activity [11] was 96% and the Activity [12] was 93%. The Activity [13] was 89%, the Activity [14] was 100% and the Activity [15] was 77%. It also gave an Activity [16] of 100%, an Activity [17] of 71% and an Activity [18] of 100%. For the same molecule, the Activity [19] was 98%, the Activity [20] was 100% and the Activity [21] was 78%. For the same molecule, the Activity [22] was 90%, the Activity [23] was 95% and the Activity [24] was 97%. The Activity [25] was 92%.
